Read-outs that look alike come from different tables or passages of the source.
Tests used:
[1] = test system: HT-29; experiment: Anti-proliferative activity, cell growth inhibition (CellTiterGlo, 72 h); type: cell-based, human; settings: for inhibition at 30 µM: HT-29, read-out: Cell growth inhibitory activity, HT-29; for IC50: 72 h
Method: (§1) Twenty compounds, i.e. 4a-o and 7a-e, were analyzed for cancer cell growth inhibitory activity. These studies were carried out using cells derived from human lung, colon and breast tumors (A549, HT-29 and ZR-75 cells, respectively). This initial assessment of activity tested each compound in quadruplicate at a single concentration of 30 μM, if solubility permitted.
(§2) A549, HT-29, ZR-75 were obtained from the American Type Culture Collection (ATCC). Cells were harvested from 90-95% confluent 10 cm dishes, and diluted in growth media (RPMI-1640 supplemented with 5% fetal bovine serum). An appropriate concentration of cells were prepared to add 1,250 cells in a volume of 25 µL per well in tissue culture treated Griener 384-well microplates, then incubated overnight at 37°C. Compound 7e was diluted to a concentration of 30 µM in DMSO. Concentrated dosing solutions of twice the final concentration were prepared by dilution of the DMSO stocks 1:500 in growth media. Two-fold serial dilutions were then prepared in medium containing 0.2% DMSO to maintain a constant concentration of vehicle throughout the concentration range of the compound. Each of these was added in an equal volume (25 µL) to four wells on each cell assay plate, along with the vehicle control. The highest concentration for serial dilutions of the positive control (sunitinib) was prepared exactly as the experimental compound 7e. Cells were incubated with the compounds for a further 72 h.
(§3) At the end of the treatment period, assay plates were allowed to cool to RT for 10 min prior to the addition of 25 µL per well Promega CellTiterGlo reagent, followed by additional 10 min incubation at RT. The resulting luminescence was quantitated using a Molecular Devices Spectramax Paradigm.
(§4) Percent growth inhibition was calculated as follows, where 100 represents the viability of vehicle treated control samples:
(§5) The potency of compounds was determined using the non-linear dose response algorithm (four-parameter logistic fit) with GraphPad Prism 5 software.

[2] = test system: A549; experiment: as above; type: cell-based, human; settings: for inhibition at 30 µM: A549, read-out: Cell growth inhibitory activity, A-549; for IC50: read-out: IC50 A-549
Method: as §1, §2, §3, §4, §5

[3] = test system: ZR-75; experiment: as above; type: cell-based, human; settings: for inhibition at 30 µM: ZR75, read-out: Cell growth inhibitory activity, ZR-75
Method: as §1, §2, §3, §4, §5

[4] = test system: HT-29, ZR-75 and A-549 cell lines; experiment: Average anti-proliferative activity over the three cancer cell lines; type: cell-based, human; settings: average of HT-29, ZR-75, A-549; for inhibition at 30 µM: read-out: Average Growth Inhibition %; for inhibition at 30 µM / Average Growth Inhibition %: 30 μM
Method: as §1
Therefore, they were subjected to quantitative inhibitory concentration 50% (IC50) determination for their cell growth inhibitory activity towards the A549, HT-29 and ZR-75 cancer cell lines.
as §2, §5

[5] = Homo sapiens, 30 μM, quadruplicate

Row | Structure (SMILES) | inhibition at 30 µM [1, 5] [%] | inhibition at 30 µM [2, 5] [%] | inhibition at 30 µM [3, 5] [%] | melting point [°C] | inhibition at 30 µM ([4]; Homo sapiens) [%] | other results
1 | COc1ccc(C=NN=C2C(=O)Nc3ccccc32)cc1 [Compound 4a, 3-((4-Methoxybenzylidene)hydrazono)indolin-2-one] | 19.5 ± 12.4 | 27.1 ± 20.3 | 34.8 ± 23.7 | 277 to 279 | 27.2 | –
2 | COc1ccc(C=NN=C2C(=O)Nc3ccccc32)cc1O [Compound 4b, 3-((3-Hydroxy-4-methoxybenzylidene)hydrazono)indolin-2-one] | 81.9 ± 3 | 66.3 ± 5.7 | 59.3 ± 11.1 | 273 to 275 | 69.2 | –
3 | COc1cc(C=NN=C2C(=O)Nc3ccccc32)ccc1O [Compound 4c, 3-((4-Hydroxy-3-methoxybenzylidene)hydrazono)indolin-2-one] | 74.9 ± 5.3 | 54.2 ± 5 | 55.4 ± 23.4 | – | 61.5 | –
4 | COc1ccc(C=NN=C2C(=O)Nc3ccccc32)cc1OC [Compound 4d, 3-((3,4-Dimethoxybenzylidene)hydrazono)indolin-2-one] | 81.7 ± 5.2 | 82.5 ± 6.9 | 58.8 ± 4.3 | 276 to 278 | 74.3 | –
5 | COc1cc(C=NN=C2C(=O)Nc3ccccc32)cc(OC)c1OC [Compound 4e, 3-((3,4,5-Trimethoxybenzylidene)hydrazono)indolin-2-one] | 81.9 ± 5.4 | 93.6 ± 3.6 | 86.1 ± 3.8 | 240 to 241 | 87.2 | –
6 | COc1ccc(C=NN=C2C(=O)Nc3ccc(Cl)cc32)cc1 [Compound 4f, 5-Chloro-3-((4-methoxybenzylidene)hydrazono)indolin-2-one] | 6.1 ± 8.6 | 8.4 ± 10 | 10.9 ± 14 | 282 to 284 | 8.4 | –
7 | COc1ccc(C=NN=C2C(=O)Nc3ccc(Cl)cc32)cc1O [Compound 4g, 5-Chloro-3-((3-hydroxy-4-methoxybenzylidene)hydrazono)indolin-2-one] | 33.5 ± 11.3 | 44.2 ± 16.5 | 46 ± 6.4 | 278 to 280 | 41.2 | –
8 | COc1cc(C=NN=C2C(=O)Nc3ccc(Cl)cc32)ccc1O [Compound 4h, 5-Chloro-3-((4-hydroxy-3-methoxybenzylidene)hydrazono)indolin-2-one] | 41.6 ± 10.4 | 37.3 ± 8.1 | 30.9 ± 9.5 | 269 to 271 | 36.6 | –
9 | COc1ccc(C=NN=C2C(=O)Nc3ccc(Cl)cc32)cc1OC [Compound 4i, 5-Chloro-3-((3,4-dimethoxybenzylidene)hydrazono)indolin-2-one] | -3.6 ± 9.7 | 4.9 ± 3.3 | 33 ± 13 | 282 to 284 | 11.4 | –
10 | COc1cc(C=NN=C2C(=O)Nc3ccc(Cl)cc32)cc(OC)c1OC [Compound 4j, 5-Chloro-3-((3,4,5-trimethoxybenzylidene)hydrazono)indolin-2-one] | 6.9 ± 4.2 | 1.7 ± 17.5 | 18.1 ± 21.2 | 245 to 247 | 8.9 | –
11 | COc1ccc(C=NN=C2C(=O)Nc3ccc(Br)cc32)cc1 [Compound 4k, 5-Bromo-3-((4-methoxybenzylidene)hydrazono)indolin-2-one] | -0.6 ± 7.2 | -6.9 ± 9.4 | -5.3 ± 18.1 | 290 to 292 | -4.3 | Average Growth Inhibition % [4]: stimulated the growth
12 | COc1ccc(C=NN=C2C(=O)Nc3ccc(Br)cc32)cc1O [Compound 4l, 5-Bromo-3-((3-hydroxy-4-methoxybenzylidene)hydrazono)indolin-2-one] | 45.9 ± 9.8 | 46.6 ± 9.5 | 44.3 ± 18.4 | 278 to 280 | 45.6 | –
13 | COc1cc(C=NN=C2C(=O)Nc3ccc(Br)cc32)ccc1O [Compound 4m, 5-Bromo-3-((4-hydroxy-3-methoxybenzylidene)hydrazono)indolin-2-one] | 42.1 ± 1.8 | 83.7 ± 10.3 | 58.7 ± 16 | 285 to 287 | 61.5 | –
14 | COc1ccc(C=NN=C2C(=O)Nc3ccc(Br)cc32)cc1OC [Compound 4n, 5-Bromo-3-((3,4-dimethoxybenzylidene)hydrazono)indolin-2-one] | -2 ± 10.2 | 0.1 ± 5.1 | 12.5 ± 21.9 | 280 to 282 | 3.5 | –
15 | COc1cc(C=NN=C2C(=O)Nc3ccc(Br)cc32)cc(OC)c1OC [Compound 4o, 5-Bromo-3-((3,4,5-trimethoxybenzylidene)hydrazono)indolin-2-one] | -1.1 ± 9 | -3.4 ± 6.6 | 3.1 ± 8.2 | 261 to 263 | -0.5 | Average Growth Inhibition % [4]: stimulated the growth
16 | CN1C(=O)C(=NN=C2C(=O)Nc3ccc(F)cc32)c2ccccc21 [Compound 7a, 5-Fluoro-3-((1-methyl-2-oxoindolin-3-ylidene)hydrazono)indolin-2-one] | 84.8 ± 3.6 | 91.6 ± 4.8 | 78.6 ± 9.9 | 295 to 297 | 85 | –
17 | CN1C(=O)C(=NN=C2C(=O)Nc3ccc(Cl)cc32)c2ccccc21 [Compound 7b, 5-Chloro-3-((methyl-2-oxoindolin-3-ylidene)hydrazono)indolin-2-one] | – | – | – | – | – | Cell growth inhibitory activity, HT-29 ([1]; 30 μM, quadruplicate): 95.5 ± 3.4%; IC50 [1]: 5.38 µM; Cell growth inhibitory activity, A-549 ([2]; 30 μM, quadruplicate): 95.2 ± 2.8%; IC50 ([2]; 72 h): 5.19 µM; Cell growth inhibitory activity, ZR-75 ([3]; 30 μM, quadruplicate): 95.5 ± 6.0%; IC50 ([3]; 72 h): 3.75 µM; Average Growth Inhibition % [4]: 95.4%; IC50 [4]: 4.77 µM
18 | O=C1Nc2ccccc2C1=NN=C1C(=O)N(Cc2ccccc2)c2ccccc21 [Compound 7c, 1-Benzyl-3-((oxoindolin-3-ylidene)hydrazono)indolin-2-one] | 73.8 ± 4.4 | 86.6 ± 9.9 | 92.1 ± 3.8 | 255 to 257 | 84.2 | –
19 | O=C1Nc2ccc(Cl)cc2C1=NN=C1C(=O)N(Cc2ccccc2)c2ccccc21 [Compound 7d, 1-Benzyl-3-((5-chloro-2-oxoindolin-3-ylidene)hydrazono)indolin-2-one] | 97 ± 1.8 | 98.4 ± 0.6 | 97.8 ± 1.8 | 258 to 260 | 97.7 | IC50 [1]: 3.62 µM; IC50 ([1]; Homo sapiens, HT-29, 72 h): 3.82 µM; IC50 ([2]; Homo sapiens, A549, 72 h): 4.13 µM; IC50 ([3]; Homo sapiens, ZR75, 72 h): 2.42 µM; IC50 ([4]; Homo sapiens): 3.39 µM

Reference: article PMC5526551, “New hydrazonoindolin-2-ones: Synthesis, exploration of the possible anti-proliferative mechanism of action and encapsulation into PLGA microspheres” (PLoS ONE, 2017)
